Measured values reported in patent US20240290133A1, “HERBAL COMPOSITION FOR BREAST CANCER PREVENTION” (priority 2021, published 2024).
Where “and” joins values, the source holds several entries; their conditions need not be identical. Equal entries are not always repeated.

Test system: MCF-7 breast cancer cells
Test: MCF-7 cell viability (PrestoBlue Cell Viability Reagent, fluorescence)
Format: cell-based, human
Conditions: individual ingredients, 2 mg/0.2 ml, 24 h, single replicate wells (Table 3)
Procedure: In order to assess this activity, a well-established line of breast cancer cells used in cancer research was selected. MCF-7 is a widely studied cancer cell line derived from breast adenocarcinoma, it was proven to be a suitable model cell line for breast cancer investigations worldwide, including those regarding anticancer drugs.
The cells were cultured with growth medium and seeded in two 96 well plates incubated at 37 Celsius. The HCBCP solution was prepared by dissolving the powder in DPBS as per Table 1, below.
The obtained solutions were sterilized by 0.22-micron filtration.
An amount of 0.2 ml was applied in each test tube providing 2 mg of HCBCP. […]
After incubation period of 24 and 48 hours, cell viability was measured using PrestoBlue™ Cell Viability Reagent, according to manufacturer instructions.
Fluorescence was detected at excitation wavelength of 560 nm and an emission of 590 nm, using TECAN SPARK 10M microplate reader, at 24 and 48 hours after application. The fluorescence data is expressed as percentage of cell viability (%) compared to vehicle control.
Percentage of cell viability was calculated using the following formula: [(fluorescence of treated cells−mean background fluorescence)/(fluorescence of cells with vehicle control−mean background fluorescence)]×100, at 24 and 48 hours after application. […]

O=c1c(O)c(-c2ccc(O)c(O)c2)oc2cc(O)cc(O)c12 [BF 2 Q, Quercetin]
FU-background: 16881.00 FU and 16665.00 FU and 15291.00 FU and 14944.00 FU
Fluorescence units (FU): 22892 FU and 22876 FU and 21302 FU
